In brackets after ≈: the same amount, converted by molar mass.

The values below come from EP2459571B1, “NITROIMIDAZOOXAZINES AND THEIR USES IN ANTI-TUBERCULAR THERAPY” (priority 2009, dated 2011).

The subject of data set [1] is M. tuberculosis Erdman. On the set-up: species or system BALB/c mice. The conditions noted are these: mouse, po, 100 mg/kg.
The subject of data set [2] is M. tuberculosis bacteria in the non-replicating state. Nature of the data set: microbe, parasite or virus in culture. Format: cell-based. The note with it: Mycobacterium tuberculosis, 264 h, low oxygen, 11 day, read-out: MIC LORA (anaerobic).
Data set [3] in a line: in vivo. The note with it: mouse, po, 40 mg/kg.
In data set [4] the test system is M. tuberculosis Erdman. Format: in vivo, BALB/c mice. The note with it: for In vivo efficacy vs PA-824, Chronic: mouse, po, 100 mg/kg.
Data set [5] relates to replicating Mycobacterium tuberculosis. Nature of the data set: MIC, microplate Alamar blue assay (MABA), 8 day. The class given is cell-based. The note with it: 192 h, read-out: MIC MABA (aerobic). Background: Alamar Blue is a resazurin reagent that responds to reducing activity.
For data set [6] the following is noted: CD-1 mice, oral, 40 mg/kg; for t½ (h) plasma: suspension in 0.5% carboxymethylcellulose/0.08% Tween 80.
Data set [7] is described as follows: Stability to mouse liver microsomes. The conditions noted are these: pH 7.4, 37 °C, 0.5 mg/mL protein, NADPH regenerating system, 60 min. Format: in vitro ADME, CD-1 mouse.
Data set [8] is described as follows: Stability to human liver microsomes. The class given is in vitro ADME. The note with it: pH 7.4, 37 °C, 0.5 mg/mL protein, NADPH regenerating system, 60 min. (Liver microsomes are a subcellular fraction often used to study metabolism.)

On to `O=[N+]([O-])c1cn2c(n1)OC[C@@H](OCc1ccc(OC(F)(F)F)cc1)C2` [PA-824, reference compound], for which, in data set [1], the “In vivo efficacy vs PA-824, Acute” value turned out to be 1.0. Besides, the MIC in data set [2] turned out to be 2.6 µM (≈ 0.934 µg/mL); in data set [5] it was 0.5 µM (≈ 0.18 µg/mL). In addition, the AUC in data set [3] stood at 296 µg·h/mL. The “log reduction in CFU” value in data set [4] (chronic assay, lungs, vs vehicle, oral 100 mg/kg) is on record as ~ 2 log. In addition, the “In vivo efficacy vs PA-824, Chronic” value in data set [4] was determined as 1.0.
As to `O=[N+]([O-])c1cn2c(n1)OC[C@@H](OCc1ccc(-c3ccc(OC(F)(F)F)cc3Cl)cc1)C2` [compound 1, (6S)-6-{[2'-Chloro-4'-(trifluoromethoxy)[1,1'-biphenyl]-4-yl]methoxy}-2-nitro-6,7-dihydro-5H-imidazo[2,1-b][1,3]oxazine], the “In vivo efficacy vs PA-824, Acute” value in data set [1] was 23. Besides, the MIC was found to be 0.78 µM (≈ 0.366 µg/mL) in data set [2] and 0.04 µM (≈ 0.0188 µg/mL) in data set [5]. The molecule also returned an AUC in data set [3] of 3360 µg·h/mL. Also, the “In vivo efficacy vs PA-824, Chronic” value in data set [4] was found to be 2.1.
On to `O=[N+]([O-])c1cn2c(n1)OC[C@@H](OCc1ccc(-c3ccc(OC(F)(F)F)cc3)cc1)C2` [compound 3, (6S)-2-Nitro-6-{[4'-(trifluoromethoxy)[1,1'-biphenyl]-4-yl]methoxy}-6,7-dihydro-5H-imidazo[2,1-b][1,3]oxazine], for which the “In vivo efficacy vs PA-824, Acute” value in data set [1] is listed as above 205. Besides, the figures for the MIC in data set [2] and in data set [5] were 1.3 µM (≈ 0.566 µg/mL) and 0.035 µM (≈ 0.0152 µg/mL), respectively. Also, in data set [3], the AUC came to 218 µg·h/mL. For the same molecule, the “In vivo efficacy vs PA-824, Chronic” value in data set [4] was found to be 12.
Consider `O=[N+]([O-])c1cn2c(n1)OC[C@@H](OCc1ccc(-c3ccc(F)cc3)nc1)C2` [compound 5, (6S)-6-{[6-(4-Fluorophenyl)-3-pyridinyl]methoxy}-2-nitro-6,7-dihydro-5H-imidazo[2,1-b][1,3]oxazine], for which the “In vivo efficacy vs PA-824, Acute” value in data set [1] came out at 7.8. Moreover, the MIC came to 2.9 µM (≈ 1.07 µg/mL) in data set [2] and 0.06 µM (≈ 0.0222 µg/mL) in data set [5]. Further, in data set [3], the AUC was 136 µg·h/mL. The “In vivo efficacy vs PA-824, Chronic” value in data set [4] came out at 20. This molecule also yielded a Cmax plasma in data set [6] of 5300 ng/mL. Further, the “t½ (h) plasma” value in data set [6] is listed as 2.7 h.
With `O=[N+]([O-])c1cn2c(n1)OC[C@@H](OCc1ccc(-c3ccc(OC(F)(F)F)cc3)nc1)C2` [compound 6, (6S)-2-Nitro-6-({6-[4-(trifluoromethoxy)phenyl]-3-pyridinyl}methoxy)-6,7-dihydro-5H-imidazo[2,1-b][1,3]oxazine], the “In vivo efficacy vs PA-824, Acute” value in data set [1] is above 89. For the same molecule, the MIC came out at 0.54 µM (≈ 0.236 µg/mL) in data set [2] and 0.05 µM (≈ 0.0218 µg/mL) in data set [5]. In data set [3], the AUC came out at 81 µg·h/mL. Besides, in data set [4], the “In vivo efficacy vs PA-824, Chronic” value amounted to 15. In addition, the “t½ (h) plasma” value in data set [6] stood at 24 h.
As to `O=[N+]([O-])c1cn2c(n1)OC[C@@H](OCc1ccc(-c3ccc(OC(F)(F)F)cc3)cn1)C2` [compound 7, (6S)-2-Nitro-6-({5-[4-(trifluoromethoxy)phenyl]-2-pyridinyl}methoxy)-6,7-dihydro-5H-imidazo[2,1-b][1,3]oxazine], the “In vivo efficacy vs PA-824, Acute” value in data set [1] stood at 27. Also, the MIC in data set [2] came to 3.7 µM (≈ 1.61 µg/mL); in data set [5] it was 0.065 µM (≈ 0.0284 µg/mL). This molecule gave an AUC in data set [3] of 427 µg·h/mL. For the same molecule, the “In vivo efficacy vs PA-824, Chronic” value in data set [4] was 0.9. In data set [6], the “t½ (h) plasma” value was 5.4 h.
`O=[N+]([O-])c1cn2c(n1)OC[C@@H](OCc1ccc(-c3ccc(C(F)(F)F)cn3)cc1)C2` [compound 8, (6S)-2-Nitro-6-({4-[5-(trifluoromethyl)-2-pyridinyl]benzyl}oxy)-6,7-dihydro-5H-imidazo[2,1-b][1,3]oxazine]: in data set [1], the “In vivo efficacy vs PA-824, Acute” value is listed as 33. Besides, the MIC was 1 µM (≈ 0.42 µg/mL) in data set [2] and 0.06 µM (≈ 0.0252 µg/mL) in data set [5]. For the same molecule, the AUC in data set [3] is 67.3 µg·h/mL. The “In vivo efficacy vs PA-824, Chronic” value in data set [4] is given as 1.7. The Cmax plasma in data set [6] is 1100 ng/mL. The “t½ (h) plasma” value in data set [6] was 8.8 h.
Turning to `O=[N+]([O-])c1cn2c(n1)OC[C@@H](OCc1ccc(-c3ccc(C(F)(F)F)nc3)cc1)C2` [compound 9, (6S)-2-Nitro-6-({4-[6-(trifluoromethyl)-3-pyridinyl]benzyl}oxy)-6,7-dihydro-5H-imidazo[2,1-b][1,3]oxazine], the “In vivo efficacy vs PA-824, Acute” value in data set [1] was determined as 15. Further, the MIC was 2.1 µM (≈ 0.883 µg/mL) in data set [2] and 0.03 µM (≈ 0.0126 µg/mL) in data set [5]. Also, the AUC in data set [3] is 414 µg·h/mL. The “In vivo efficacy vs PA-824, Chronic” value in data set [4] was found to be 4.6.
With `O=[N+]([O-])c1cn2c(n1)OC[C@@H](OCc1ccn(-c3ccc(OC(F)(F)F)cc3)n1)C2` [compound 10, (6S)-2-nitro-6-({1-[4-(trifluoromethoxy)phenyl]-1H-pyrazol-3-yl}methoxy)-6,7-dihydro-5H-imidazo[2,1-A][1,3]oxazine], the “In vivo efficacy vs PA-824, Acute” value in data set [1] is on record as 41. The amount remaining at 1 h, 1 µM in data set [7] is 67%; in data set [8], 87%. For the same molecule, the MIC in data set [2] was determined as 0.61 µM (≈ 0.259 µg/mL); in data set [5], 0.05 µM (≈ 0.0213 µg/mL). In data set [3], this molecule had an AUC of 31.5 µg·h/mL.
For `Cn1nc(-c2ccc(OC(F)(F)F)cc2)cc1CO[C@@H]1COc2nc([N+](=O)[O-])cn2C1` [compound 11], in data set [1], the “In vivo efficacy vs PA-824, Acute” value was determined as 12. Also, the MIC in data set [2] amounted to 0.58 µM (≈ 0.255 µg/mL); in data set [5], 0.06 µM (≈ 0.0264 µg/mL). Also, the AUC in data set [3] turned out to be 92.4 µg·h/mL. Also, in data set [4], the “In vivo efficacy vs PA-824, Chronic” value is reported as 0.9.
`O=[N+]([O-])c1cn2c(n1)OC[C@@H](OCc1ccc(-c3ccc(OC(F)(F)F)cc3)cc1F)C2` [compound 12, (6S)-6-{[3-Fluoro-4'-(trifluoromethoxy)[1,1'-biphenyl]-4-yl]methoxy}-2-nitro-6,7-dihydro-5H-imidazo[2,1-b][1,3]oxazine]: the “In vivo efficacy vs PA-824, Acute” value in data set [1] was determined as 33. For the same molecule, the MIC is 1.2 µM (≈ 0.544 µg/mL) in data set [2] and 0.017 µM (≈ 0.00771 µg/mL) in data set [5]. In data set [3], this molecule displayed an AUC of 549 µg·h/mL. Besides, the “In vivo efficacy vs PA-824, Chronic” value in data set [4] came out at 16. This molecule gave a Cmax plasma in data set [6] of 6700 ng/mL.
For `O=[N+]([O-])c1cn2c(n1)OC[C@@H](OCc1ccc(Cc3ccc(OC(F)(F)F)cc3)cc1)C2` [compound 17, (6S)-2-Nitro-6-({4-[4-(trifluoromethoxy)benzyl]benzyl}oxy)-6,7-dihydro-5H-imidazo[2,1-b][1,3]oxazine], the amount remaining at 1 h, 1 µM in data set [7] was 70%; in data set [8] it was 85%. The MIC in data set [2] is 1.1 µM (≈ 0.494 µg/mL); in data set [5], 0.02 µM (≈ 0.00899 µg/mL).
On to `O=[N+]([O-])c1cn2c(n1)OC[C@@H](OCc1ccc(-c3ccc(OC(F)(F)F)c(F)c3)cn1)C2` [compound 22, (6S)-6-({5-[3-Fluoro-4-(trifluoromethoxy)phenyl]-2-pyridinyl}methoxy)-2-nitro-6,7-dihydro-5H-imidazo[2,1-b][1,3]oxazine], for which the “In vivo efficacy vs PA-824, Acute” value in data set [1] was determined as 233. For the same molecule, the values for the MIC in data set [2] and in data set [5] were 1.3 µM (≈ 0.591 µg/mL) and 0.05 µM (≈ 0.0227 µg/mL), respectively. The AUC in data set [3] came to 155 µg·h/mL. The molecule also displayed a Cmax plasma in data set [6] of 7600 ng/mL. Further, in data set [6], the “t½ (h) plasma” value is 8.4 h.
For `O=[N+]([O-])c1cn2c(n1)OC[C@@H](OCc1ccc(-c3ccc(OC(F)(F)F)cc3)nn1)C2` [compound 24], the “In vivo efficacy vs PA-824, Acute” value in data set [1] is 11. The MIC in data set [2] was found to be 1.7 µM (≈ 0.743 µg/mL); in data set [5], 0.075 µM (≈ 0.0328 µg/mL). In data set [3], this molecule registered an AUC of 93.9 µg·h/mL. In addition, the “t½ (h) plasma” value in data set [6] is 2.9 h.
Take `O=[N+]([O-])c1cn2c(n1)OC[C@@H](OCc1ccc(C#Cc3ccc(C(F)(F)F)nc3)cn1)C2` [compound 25, (6S)-2-Nitro-6-[(5-{[6-(trifluoromethyl)-3-pyridinyl]ethynyl}-2-pyridinyl)methoxy]-6,7-dihydro-5H-imidazo[2,1-b][1,3]oxazine]: the share remaining at 1 h, 1 µM in data set [7] stood at 91%; in data set [8] it was 88%. Moreover, the MIC is 0.74 µM (≈ 0.33 µg/mL) in data set [2] and 0.035 µM (≈ 0.0156 µg/mL) in data set [5].
As to `O=[N+]([O-])c1cn2c(n1)OC[C@@H](OCC#Cc1ccc(-c3ccc(OC(F)(F)F)cc3)cc1)C2` [compound 30, (6S)-2-Nitro-6-({3-[4'-(trifluoromethoxy)[1,1'-biphenyl]-4-yl]-2-propynyl}oxy)-6,7-dihydro-5H-imidazo[2,1-b][1,3]oxazine], in data set [1], the “In vivo efficacy vs PA-824, Acute” value amounted to 89. The figures for the MIC in data set [2] and in data set [5] were 0.99 µM (≈ 0.455 µg/mL) and 0.16 µM (≈ 0.0735 µg/mL), respectively. Also, the AUC in data set [3] is 13.6 µg·h/mL. Also, the “In vivo efficacy vs PA-824, Chronic” value in data set [4] is 11. The molecule also returned a Cmax plasma in data set [6] of 570 ng/mL. The “t½ (h) plasma” value in data set [6] came out at 7.5 h.
Regarding `O=[N+]([O-])c1cn2c(n1)OC[C@@H](OCc1ccc(/C=C/c3ccc(OC(F)(F)F)cc3)cc1)C2` [compound 31, (6S)-2-Nitro-6-[(4-{(E)-2-[4-(trifluoromethoxy)phenyl]ethenyl}benzyl)oxy]-6,7-dihydro-5H-imidazo[2,1-b][1,3]oxazine], in data set [1], the “In vivo efficacy vs PA-824, Acute” value worked out at 5.8. Further, the fraction remaining at 1 h, 1 µM in data set [7] was 98%; in data set [8], 99%. The figures for the MIC in data set [2] and in data set [5] were 27 µM (≈ 12.5 µg/mL) and 0.02 µM (≈ 0.00923 µg/mL), respectively.

Broadly, the AUC is concentration integrated over time. The low end stands for less exposure, the high end for more exposure. The term share remaining denotes what is left of the initial amount, in per cent.
